Measurements as given in article PMC7245562 (Cell chemical biology, 2020).
Converted amounts (≈) assume the structure as drawn.

Tests used:
[1] = system: BW25113 wild-type E. coli; experiment: Bacterial growth assay, Gram-negative E. coli; settings: Escherichia coli, BW25113, read-out: minimal inhibitory concentration [MIC]
ecDHFR.YFP = ecDHFR.YFP (Escherichia coli, UniProt P0ABQ4, G67S/R12Y/Y100I); type: cell-based; settings: for "Off" kinetics compared with TMP: 1 and 10 μM; for stabilization of ecDHFR after washout: 48 h post washout
recombinant hsDHFR = target: T1, recombinant hsDHFR (Homo sapiens, UniProt P00374); experiment: Human DHFR; type: biochemical; settings: 1 μM compound
T1 sequence (P00374 1-187): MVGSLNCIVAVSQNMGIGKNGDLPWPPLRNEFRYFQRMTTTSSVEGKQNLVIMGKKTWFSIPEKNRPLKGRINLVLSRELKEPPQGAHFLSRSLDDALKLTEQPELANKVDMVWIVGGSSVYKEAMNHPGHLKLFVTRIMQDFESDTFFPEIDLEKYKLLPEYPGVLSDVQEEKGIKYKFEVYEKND

RN4220 S. aureus = experiment: Bacterial growth assay, Gram-positive S. aureus; type: cell-based; settings: concentrations up to 50 μM
[2] = target: T2, R12Y/G67S/Y100I ecDHFR fused to yellow fluorescent protein (ecDHFR.YFP) (Escherichia coli, UniProt P0ABQ4, G67S/R12Y/Y100I); type: cell-based; settings: for stabilization of ecDHFR.YFP: 10 μM final concentration, 24 h treatment; for dose-dependent stabilization of ecDHFR.YFP: dose-response, 24 h
[3] = target: T3, ecDHFR DD firefly luciferase (ecDHFR.FLuc) (Escherichia coli, UniProt P0ABQ4, G67S/R12Y/Y100I); type: in vivo, BALB/c mice; settings: 1 mg (50 mg/kg) oral gavage, 6 h, mean ± SEM
[4] = target: T3, ecDHFR DD firefly luciferase (ecDHFR.FLuc); type: in vivo, BALB/c mice; settings: 1 mg (50 mg/kg) oral gavage, 6 h, mean ± SEM; remark: listed apart in the source
[5] = target: R12Y/F31L/G67S/Y100I ecDHFR.YFP (Escherichia coli, UniProt P0ABQ4, F31L/G67S/R12Y/Y100I); type: cell-based; settings: 24 h, vs control ecDHFR DD
[6] = target: R12Y/M16L/G67S/Y100I ecDHFR.YFP (Escherichia coli, UniProt P0ABQ4, G67S/M16L/R12Y/Y100I); type: cell-based; settings: 24 h, vs control ecDHFR DD
[7] = target: I5F/R12Y/G67S/Y100I ecDHFR.YFP (Escherichia coli, UniProt P0ABQ4, G67S/I5F/R12Y/Y100I); type: cell-based; settings: 24 h, vs control ecDHFR DD
[8] = target: R12Y/G67S/I94L/Y100I ecDHFR.YFP (Escherichia coli, UniProt P0ABQ4, G67S/I94L/R12Y/Y100I); type: cell-based; settings: 24 h, vs control ecDHFR DD
Iba1(+) microglia = experiment: Iba1; type: in vivo, BALB/c mice; settings: 1 mg per day for 7 days, oral gavage
[9] = target: T2, R12Y/G67S/Y100I ecDHFR fused to yellow fluorescent protein (ecDHFR.YFP); type: cell-based; settings: 5 μM, 24 h

With `COc1ccc(Cc2cnc(N)nc2N)cc1OC` [diaveridine] the MIC [1] was ~16.6 µM (≈ 4.32 µg/mL) and the “"Off" kinetics compared with TMP” value (ecDHFR.YFP) was “noticeably quicker”.
In the case of `Nc1nc(N)c2nc(-c3cccc(Cl)c3)c(N)nc2n1` [Epiblastin A], the “inhibition of hsDHFR activity” value (recombinant hsDHFR) is reported as “intermediately inhibited” and the “S. aureus growth inhibition” value (RN4220 S. aureus) is reported as “did not completely inhibit growth”.
In the case of `COc1cc(C)c(Cc2cnc(N)nc2N)cc1OC` [ormetoprim], the MIC [1] is reported as ~16.6 µM (≈ 4.55 µg/mL), the “"Off" kinetics, time after removal” value (ecDHFR.YFP; 0.1 μM) is reported as 2 to 4 h and the “"Off" kinetics compared with TMP” value (ecDHFR.YFP) is reported as “noticeably quicker”.
With `Nc1nc2[nH]cc(CCc3ccc(C(=O)N[C@@H](CCC(=O)O)C(=O)O)cc3)c2c(=O)[nH]1` [pemetrexed] the “stabilization of ecDHFR.YFP” value [2] was “did not allow for stabilization”.
In the case of `Nc1nc(N)c2nc(CNc3ccc(C(=O)N[C@@H](CCC(=O)O)C(=O)O)cc3)cnc2n1` [aminopterin], the “dose-dependent stabilization of ecDHFR.YFP” value [2] is reported as “readily stabilized”, the “inhibition of hsDHFR activity” value (recombinant hsDHFR) is reported as “completely inhibited” and the “stabilization of ecDHFR after washout” value (ecDHFR.YFP) is reported as “continued to stabilize ecDHFR”.
With `Nc1nc(N)c2nc(-c3ccccc3)c(N)nc2n1` [Triamterene] the “fold change in luminescence after treatment, eye” value (shortened to “fold change in luminescence”) [3] was 3.1 ± 0.6 fold, the “inhibition of hsDHFR activity” value (recombinant hsDHFR) was “intermediately inhibited” and the “fold change in bioluminescent signal, liver” value (“fold change … liver” for short) [4] was 1.9 ± 0.2 fold.
With `[H]/N=C(\N/C(=N/[H])Nc1ccc(Cl)cc1)NC(C)C` [proguanil] the “stabilization of ecDHFR.YFP” value [2] was “no stabilization capabilities”.
For `Nc1nc(N)c2ccccc2n1` [2,4-DAQ, 2,4-diaminoquinazoline], the “responsiveness to stabilization, Phe31 (F31L) mutant” value [5] was “eliminated all responsiveness”, the “effect of Met16 (M16L) mutation on stabilization” value [6] was “did not significantly disrupt” and the “responsiveness to stabilization, Ile5 (I5F) mutant” value [7] was “eliminated all responsiveness”. The “fold change in luminescence” value [3] was 1.6 ± 0.3 fold, the “responsiveness to stabilization, Ile94 (I94L) mutant” value [8] was “eliminated all responsiveness” and the “fold change … liver” value [4] was 5.3 ± 2.1 fold.
With `COc1ccc(COc2ccc(Cc3cnc(N)nc3N)cc2OC)cc1` [GW2580] the “fold change in luminescence” value [3] was 8.6 ± 1.7 fold, the “reduction of Iba1(+) microglia, inner retina” value (Iba1(+) microglia) was 33% and the “reduction of Iba1(+) microglia, outer retina” value (Iba1(+) microglia) was 32%. For the same compound, the MIC (RN4220 S. aureus; LB broth, endpoint 19-24 h) was ~ 50 μM.
In the case of `Cc1cc(/C=C/c2ccc3cc(N(C)C)ccc3[n+]2C)c(C)n1-c1ccccc1` [pyrvinium pamoate], the “hit follow-up in ARPE-19 cells lacking ecDHFR.YFP” value [9] is reported as “fluorescent false positives”.
In the case of `Nc1ccnc(N)n1` [2,4-DAP, 2,4-diaminopyrimidine], the “stabilization of ecDHFR.YFP” value [2] is reported as “insufficient to stabilize”.
`C#CCC(Cc1cnc2nc(N)nc(N)c2n1)c1ccc(C(=O)N[C@@H](CCC(=O)O)C(=O)O)cc1` (stereo partly shown) [Pralatrexate] was tested, and the “dose-dependent stabilization of ecDHFR.YFP” value [2] was “readily stabilized”, the “fold change in luminescence” value [3] was 3.5 ± 0.7 fold and the “inhibition of hsDHFR activity” value (recombinant hsDHFR) was “completely inhibited”. For the same compound, the “fold change … liver” value [4] was 7.1 ± 1.3 fold, the “stabilization of ecDHFR after washout” value (ecDHFR.YFP) was “continued to stabilize ecDHFR” and the “time of peak ecDHFR.YFP fluorescence” value (ecDHFR.YFP; all concentrations used (0.1, 1, 10 μM)) was 48 h.
In the case of `Cc1nc2ccc(CN(C)c3ccc(C(=O)N[C@@H](CCC(=O)O)C(=O)O)s3)cc2c(=O)[nH]1` [raltitrexed], the “stabilization of ecDHFR.YFP” value [2] is reported as “did not allow for stabilization”.
With `Nc1ncc(C=O)c(N)n1` [2,4-DAP-5C, 2,4-diaminopyrimidine-5-carbaldehyde] the “stabilization of ecDHFR.YFP” value [2] was “insufficient to stabilize”.
For `CC1(C)N=C(N)N=C(N)N1OCCCOc1cc(Cl)c(Cl)cc1Cl` [WR99210], the “inhibition of hsDHFR activity” value (recombinant hsDHFR) was “intermediately inhibited”.
In the case of `Nc1nc2ccccc2c(=O)[nH]1` [2-AQ-4O, 2-amino-3H-quinazolin-4-one], the “stabilization of ecDHFR.YFP” value [2] is reported as “did not allow for stabilization”.
